Test [1] deals with RNA3WJ_0.0.0_5IB_3FAM (3WJ_0.0.0_5IB_3FAM RNA construct). In words: Thermal shift binding assay. The settings on record: for Melt. Temp. with cmpd / Shift melt. Temp.: RNA sequence 3WJ_0.0.0_5IB_FAM; for Melt. Temp. with cmpd: melting temperature in presence of compound; for Shift melt. Temp.: with cmpd minus without cmpd. The text has this: (§1) Purpose: Test binding of compounds for RNA three way junction (for example, a construct of 38 nt). Thermal shift assay based on established fluorescence quenching assay utilizing FAM as fluorescence tag and Iowa Black as quencher. Tags were attached at the 3′ and 5′ end, respectively. Stable formation of 3WJ upon compound binding would lead to quenching of the FAM fluorescence due to close proximity of the Iowa Black tag. Thermal unfolding leads to increase of fluorescence emission. Assay readout: FAM (465-510 nm) Thermal Shift.
(§2) Assay sample buffer used: 10 mM CacoK pH 7.2, 30 mM NaCl. Buffer preparation in Dnase/Rnase Free distilled water (Gibco Life Technologies).
(§3) Dilute the RNA 1:10 (final 10 μM) in Assay Buffer.
(§4) Heat up the diluted RNA up to 90° C. for 5 min (sealed Eppendorf Tube).
(§5) Cool down the RNA probe slowly to RT.
(§6) Dilute the compounds to 800 μM in DMSO (Assay: 8 μM). […]
(§7) Pipet 20 μL Sample Solution into Roche, Light Cycler480 Multiwell Plate96, white, REF 04729692001.
(§8) Measure the 96 plate with the LightCycler480 (Channel: 480/510 nm; Temperature: 41-91° C.).
(§9) Analyse measurement-data with the MeltingCurveGenotyping Mode.
(§10) Settings: Acquisition mode: continuous; Ramp rate: 0.1° C./sec; Acquisition: 6° C.
(§11) Curves are fitted with raw and normalized data.
(§12) Melting curves analysis show melting temperature (Tm) of ˜51° C. Range of RNA concentrations was tested and assay window was determined (conc. range of 0.5-1 μM yields best results). The choice of buffer also affected the Tm. RNA constructs were tested under different buffer conditions (especially in presence of salt) in the thermal shift assay. […] CacoK with 30 mM salt at 1 μM RNA conc. was used to assess compound effects on 3WJ stability. […] These conditions were used for screening test compounds.

For test [2], the system named is 3WJ_0.0.0_5IB_3FAM RNA construct. The test can be described thus: Fluorescence quenching binding assay (FAM / Iowa Black). The settings on record: concentration dependent; effect at conc. >5 μM. As to the method:
This assay will be used to test binding of compounds for RNA three way junction (such as a 38 nt construct). This is a fluorescence quenching assay utilizing FAM as fluorescence tag and Iowa Black as quencher. Tags are attached at the 3′ and 5′ end, respectively. Stable formation of MW upon compound binding would lead to quenching of the FAM fluorescence due to close proximity of the Iowa Black tag. Assay readout: FAM (485-520 nm) Fluorescence Intensity.
as §2, §3, §4, §5
(§13) Dilute the compounds to 800 μM in DMSO (Assay: 8 μM).
Final concentrations in the sample: 1-10 μM RNA, 8 μM compound, 1% DMSO
Pipet 25 μL Sample Solution into Greiner cat #784076, black, 384
Measure the 96 plate with the LightCycler480 (Channel: 485/520 nm).
Calibration of the expected fluorescence signal at various RNA concentrations in either CacoK or NaPO4 buffers was performed first. Experiments in buffers containing salt show distinct fluorescence quenching behavior. […]
First, two compounds (i.e. Ark000007 & Ark000008) were tested in the fluorescence quenching assay to assess concentration dependent influence on the fluorescence signal.

A further test relates to RNA3WJ_3.0.0_5IB_3FAM. The test can be described thus: Thermal shift binding assay. Particulars: RNA:ligand ratios 1:1, 1:3.
Excerpt: as §1, §2, §3, §4, §5, §6, §7, §8, §9, §10, §11, §12

The subject of test [3] is RNA3WJ_1.0.0_5IB_3FAM (cis 3WJ with one unpaired nucleotide). In words: Thermal shift binding assay. The settings on record: RNA:ligand ratios 1:1, 1:3.
Excerpt: as §1, §2, §3, §4, §5, §13
Final concentrations in the sample: 1 μM RNA, 8 μM compound, 1% DMSO
as §7, §8, §9, §10, §11, §12
Compounds Ark0000013 and Ark0000014 were also tested in the thermal shift assay against three RNA 3WJ constructs, A) RNA3WJ_1.0.0_5IB_3FAM (cis 3WJ with one unpaired nucleotide); B) Split3WJ.1_up_5IB+Split3WJ.1_down_3FAM (trans 3WJ as 1:1 mix); and C) Split3WJ.2_up_5IB+Split3WJ.2_down_3FAM (trans 3WJ as 1:1 mix).

The test system of test [4] is 17CAG and 41CAG RNA (httmRNA). In words: Ligand observed NMR binding assay for CAG repeat RNA. The settings on record: 3 μM RNA, 200 μM compound, 288 K. As to the method: Following the above procedure, various tool and test compounds were assayed for binding. In a first series of experiments, compounds were tested for binding to 17CAG or 41CAG (sample was 3 μM in RNA). […] However, several of the compounds did show significant changes in their signals in the presence of the two RNA target species.
Purpose: Test direct binding of compounds for httmRNA (construct with 41 CAG repeats 474 nt) and others as described below. Ligand observed NMR assay to test direct binding of fragments to RNA target (e.g. construct with 41 CAG repeats 474 nt). Single compound hits were identified for further characterization by orthogonal assay (e.g. surface plasmon resonance, SPR). Ligand observed assay was used for primary screen and deconvolution into single fragment hits. Established experiments were eventually used for group epitope mapping.
This assay tests for direct binding of compounds to httmRNA and may be adapted for other repeat RNAs. Compounds are tested in pools (i.e. pool size of 12 fragments in each sample in the primary screen and smaller pool sizes during deconvolution and eventually single compound measurements).
Sample buffer: 10 mM Tris-HCl, pH 8.0, 0.78 g [MW: 157.56 g/mol]; 75 mM KCl, 2.79 g [MW: 74.55 g/mol]; 3 mM MgCl2, 0.14 g [MW: 95.21 g/mol]; fill up to 500 mL with Millipore H2O.
Dried RNA pellet is solubilized in sample buffer 10 mM Tris-HCl pH 8.0, 75 mM KCl, 3 mM MgCl2. RNA aliquot at 13.9 μM (stock concentration) is denatured at 95° C. for 3 min and snap-cooled on ice for 3 min, and refolded at 37° C. for 30 min.
Final concentrations in the sample: 200 μM each fragment and 3 μM RNA target molecule.
Sample is placed into magnet and temperature adjusted to 288 K. Spectrometer frequency at 600 MHz is matched and tuned. Magnetic field is shimmed to homogenize magnetic field around the sample.
Sequence of experiments includes a Proton 1D experiment with a Watergate sequence for water suppression, a WaterLOGSY (WLOGSY) and a 1D Saturation transfer difference (STD) experiment to test for direct binding of the compounds to the RNA.
Details for 1D Watergate experiment: For each 1D WATERGATE spectrum a total of 8192 complex points in f1 (^1H) with 128 scans were acquired (experiment time 4 min.). The spectral width was set to 16.66 ppm.
Details WLOGSY experiment: For the WLOGSY-spectrum, a total of 1024 complex points in f1 (^1H) with 256 scans were acquired (experiment time 25 min.). The carrier frequency for ^1H was set at the water resonance (˜4.7 ppm). The spectral width was set to 16.66 ppm in the direct dimension (^1H).
Details STD experiment: For the STD-spectrum, a total of 1024 complex points in f1 (^1H) with 1024 scans were acquired (experiment time 65 min.). The carrier frequency for ^1H was set at the water resonance (˜4.7 ppm). The spectral width was set to 16.66 ppm in the direct dimension (^1H). For the on-resonance experiments saturation is set to 2.0 sec at a saturation frequency of −2500 Hz. For the off-resonance experiment saturation frequency is set at 10200 Hz.
Python scripts were used to process all recorded spectra in the assay setup, screening and deconvolution process. Spectra were analyzed for direct binding signals of the compounds. Identified single compound hits were reported.

The test system of the next test is 41CAG RNA (476 nt). The test can be described thus: NMR competition experiments (WaterLOGSY). Particulars: 100 μM compound, 2.5 μM RNA. It counts as binding. As to the method: Competition experiments were also performed. Test Sample: 2.5 μM 41CAG RNA (476 nt) was combined with the following: 100 μM HP-AC008002-E01 (A); +/−200-400 μM HP-AC008001-E02 (B); and +/−200-400 μM HP-AT005003-C03 (C). ^1H 1D Watergate & WaterLOGSY spectra recorded of HP-AC008002-E01 are used as a reference.
In a further experiment, as Test Sample 2.5 μM 41CAG RNA (476 nt) was used in the presence of: 100 μM HP-AC008001-E02 (B) or 100 μM HP-AT005003-C03 (C); +/−200-400 μM HP-AC008002-E01 (A). ^1H 1D Watergate and WaterLOGSY spectra recorded single cmpds were used as a reference.
In a further experiment, as Test Sample: 2.5 μM 41CAG RNA (476 nt) was used in the presence of: 100 μM HP-AC008001-E02 (B)+/−200-400 μM HP-AT005003-C03 (C). ^1H 1D Watergate & WaterLOGSY spectra recorded of single cmpd HP-AC008001-E02 were used as a reference.

[5] abbreviates: 1 μM RNA, 8 μM compound, 10 mM CacoK pH 7.2, 30 mM NaCl.
Setting [6] is: competitor HP-AC008002-E01 200-400 μM (up to 1:4).

Counter-ions that a name gives are not always drawn.

With `CN(CCOCCN(C)C(=O)[C@@H]1C[C@H](N=[N+]=[N-])CN1C(=O)c1ccc2c(=O)oc(=O)[nH]c2c1)C(=O)CCC12c3cc(NC(=O)CCCCCCCN)ccc3C(c3ccc(NC(=O)CCCCCCCN)cc31)c1ccc(NC(=O)CCCCCCCN)cc12` [ARK000034, N,N′,N″-(9-(3-((2-(2-((2S,4S)-4-azido-1-(2,4-dioxo-1,4-dihydro-2H-benzo[d][1,3]oxazine-7-carbonyl)-N-methylpyrrolidine-2-carboxamido)ethoxy)ethyl)(methyl)amino)-3-oxopropyl)-9,10-dihydro-9,10-[1,2]benzenoanthracene-2,7,15-triyl)tris(8-aminooctanamide)], in test [1], the “Melt. Temp. with cmpd” value amounted to 60.2 °C and the “Shift melt. Temp.” value was “+0.3 °C”.
For the compound `[N-]=[N+]=NC[C@H]1O[C@H](O[C@@H]2[C@@H](O)[C@H](O[C@H]3O[C@H](CN)[C@@H](O)[C@H](O)[C@H]3O)[C@@H](N)C[C@H]2N)[C@H](O)[C@@H](N)[C@@H]1O` [Ark000007, 6″-Azido-Kanamycin a Hydrochloride Salt], in test [1] (setting [5]), the “Melting temp + cmpd” value was 65.6 °C and the “Temp. Shift” value was approximately 5 °C. Moreover, in test [1], the “Melt. Temp. with cmpd” value is 65.6 °C and the “Shift melt. Temp.” value is “+4.4 °C”. Moreover, the “fluorescence quenching effect (FAM fluorescence signal)” value in test [2] is on record as “increase of quenching effect”.
For the compound `C#CCCCC(=O)NC[C@H]1O[C@H](O[C@H]2[C@H](O)[C@@H](O[C@H]3O[C@H](CO)[C@@H](O)[C@H](N)[C@H]3O)[C@H](N)C[C@@H]2N)[C@H](O)[C@@H](O)[C@@H]1O` [Ark000008], in test [1] (1 μM RNA, 8 μM compound), the “effect on melting temperature (in words)” value is listed as “only a very small effect”. Further, in test [1], the “Melt. Temp. with cmpd” value amounted to 61.8 °C and the “Shift melt. Temp.” value is “+0.6 °C”. Also, in test [2], the “fluorescence quenching effect (FAM fluorescence signal)” value is “Only Ark000007 showed an increase of quenching effect”.
Take `CN(CCCN)CCCNC(=O)c1ccccc1` [Ark000039]: the “effect in the melting curves (raw and normalized data)” value in the test on RNA3WJ_3.0.0_5IB_3FAM is “lack of effect”; in test [1] (RNA:ligand ratios 1:1, 1:3) it was “no significant effect”; in test [3] it was “lack of effect”. Besides, the “Melt. Temp. with cmpd” value in test [1] came out at 60.3 °C. In addition, the “Shift melt. Temp.” value in test [1] is −1.2 °C.
Consider `O=C(c1ccc(Cl)cc1)N1CCN(c2ccc([N+](=O)[O-])c3ncccc23)CC1` [CPNQ, reference compound], for which, in test [4], the STD signal entry is “distinct”.
With `Cc1nn(-c2ccccc2)nc1CN` [HP-AC008001-E02], the “WaterLOGSY signals in the presence of competitor” value (“WaterLOGSY signals” below) in the test with 41CAG RNA (476 nt) (setting [6]) and in the test on 41CAG RNA (476 nt) (competitor HP-AT005003-C03 200-400 μM (up to 1:4)) was “still observed” throughout. Moreover, in test [4], the STD signal entry is recorded as “distinct”.
`OCc1cccc(-c2cccnc2)c1` [HP-AC008002-E01]: the “WaterLOGSY signals” value with 41CAG RNA (476 nt) (competitor HP-AC008001-E02 or HP-AT005003-C03 200-400 μM (up to 1:4)) is on record as “still observed”. Besides, the STD signal entry in test [4] was “distinct”.
Turning to `NCc1ccc2ccccc2n1` [HP-AC008004-C07], in test [4], the STD signal entry is given as “weak”.
On to `CC(O)CNCc1ccc(-c2ccccc2)o1` (stereo not shown) [HP-AT005003-C03], for which the “WaterLOGSY signals” value with 41CAG RNA (476 nt) (setting [6]) is reported as “still observed”. Moreover, the STD signal entry in test [4] is “distinct”.
